Test results from patent EP2875811A1, “Use of dobesilate for treating ocular haemorrhages” (priority 2013, dated 2015).

Columns and labels:
[1] = test system: vitreous haemorrhage; assay type: in vivo, human
Method: A 68 old-year type 2 diabetic man presented with intense vision loss in their right eye. […] Intraocular pressure was 50mmHg that was reduced to 14mmHg after a paracentesis procedure. After approval of the Institutional Ethics Committee, the patient signed an informed consent form, which included a comprehensive description of dobesilate and the proposed procedure. Patient received an intravitreal solution of dobesilate (150 µl) under sterile conditions, following the International Guidelines for intravitreal injections (Aiello LP et al. Retina. 2004; 24 (5 Suppl):S3-S19) in their right eye. Dobesilate was administered as a 12.5% solution of diethylammonium 2.5-dihydroxybenzenesulfonate (etamsylate, dicynone® Sanofi-Aventis. Paris. France).
• Figure 1 Sequence of fundus photographs (A-D) and spectral-domain optical coherence tomography (SD-OCT) scans (D-F) of a patient with a moderate-sized submacular haemorrhage at baseline (A,D), and one (B,E) and two months (C,F) after a single intravitreal injection of dobesilate. Asterisk in D indicates retinal pigment epithelium (RPE) detachment. • Figure 2 Efficacy of intravitreal dobesilate injection to clear vitreous haemorrhage in a diabetic patient. A and C photographs were taken at presentation, and B and D after 3 days of treatment. […] Note in B the abnormal appearance of the pupil due to luxation of the lens. […]

[2] = test system: submacular haemorrhage; assay type: in vivo, human
Method: A person with a history of wet age-related macular degeneration (AMD) in both eyes developed a sudden vision decrease in the right eye. The best corrected visual acuity (BCVA) on presentation was of 0.05. […] Haemorrhage seems also result in the RPE detachment at some points (Fig 1D, asterisk). Intravitreal dobesilate was administered in the right eye, using a standard protocol. After approval of our Institution Ethical Committee, the patient signed an informed consent form, which included a comprehensive description of dobesilate and the proposed procedure. Patient received an intravitreal solution of dobesilate (150µl) under sterile conditions in their right eye, following the International Guidelines for intravitreal injections (Aiello LP et al. Retina. 2004; 24 (5 Suppl):S3-S19). Dobesilate was administered as a 12.5% solution of diethylammonium 2.5-dihydroxybenzenesulfonate (etamsylate; dicynone® Sanofi-Aventis. Paris. France).
• Figure 1 Sequence of fundus photographs (A-D) and spectral-domain optical coherence tomography (SD-OCT) scans (D-F) of a patient with a moderate-sized submacular haemorrhage at baseline (A,D), and one (B,E) and two months (C,F) after a single intravitreal injection of dobesilate. Asterisk in D indicates retinal pigment epithelium (RPE) detachment. • Figure 2 Efficacy of intravitreal dobesilate injection to clear vitreous haemorrhage in a diabetic patient. A and C photographs were taken at presentation, and B and D after 3 days of treatment. […] Note in B the abnormal appearance of the pupil due to luxation of the lens. Arrow indicates paracentesis site.

[3] = person, right eye, intravitreal 150µl of 12.5% solution, along two months follow-up

O=S(=O)(O)c1cc(O)ccc1O [dobesilate, diethylammonium 2.5-dihydroxybenzenesulfonate]
Intraocular pressure ([1]; after treatment, pressure had been reduced from 50mmHg to 14mmHg by paracentesis before injection): maintained at normal level | ocular side effects ([1]; human, in vivo): No ocular side effects were observed | ocular side effects ([2]; human, in vivo): No ocular side effects were observed | SD-OCT scans: retinal architecture / RPE detachment [2, 3]: progressive normalization of the retinal architecture with disappearance of RPE detachment | haemorrhage signs (fundus) [2, 3]: gradually disappeared | final BCVA (best corrected visual acuity) ([2]; person, right eye, intravitreal 150µl of 12.5% solution, two months follow-up, BCVA on presentation 0.05): 0.50
